Values of other authors in patent US20080188497A1, “Dipyridamole, Acetylsalicylic Acid, and Angiotensin II Antagonist Pharmaceutical Compositions” (Boehringer Ingelheim International GmbH, priority 2003, published 2008).

Conditions: ESPS-2 clinical study; compared with low-dose aspirin / aspirin alone

## OCCN(CCO)c1nc(N2CCCCC2)c2nc(N(CCO)CCO)nc(N3CCCCC3)c2n1 [dipyridamole, 2,6-bis(diethanolamino)-4,8-dipiperidinopyrimido[5,4-d]pyrimidine]
  reduction of stroke risk: as effective as low-dose aspirin
